Experimental data as given in patent US20070141645A1, “Measuring method using whole blood” (MITSUBISHI KAGAKU IATRON, INC., priority 2005, published 2007).
Read-outs that look alike come from different tables or passages of the source.

Tests used:
endogenous ALP = endogenous ALP (Homo sapiens, UniProt P05186); conditions: 3 weeks
Description: To a solution containing 0.4 mM CDP-Star, levamisole was added to final concentrations of 0.4, 1.0 and 4.0 mM to prepare substrate solutions to be examined. As a control, a substrate solution containing 0.4 mM CDP-Star without levamisole was used. Each solution was kept at 4, 25, and 37° C. for 3 weeks, and each remaining activity was measured.
Further, the substrate solutions containing 0.4 mM levamisole and kept at 4° C. and 37° C. for 3 weeks were used to confirm the inhibitory effect of levamisole.

ALP used as the label = conditions: addition of levamisole 0.2 mM; positive control
Description: (§1) The whole blood sample showing a high background in Example 1 was used as a whole blood negative control, and a plasma obtained by centrifuging the whole blood sample was used as a plasma negative control. Further, a sample obtained by adding a commercially available cTnI (10 ng/mL) to the whole blood sample was used as a whole blood positive control, and a plasma obtained by centrifuging the whole blood positive control was used as a plasma positive control. The obtained 4 samples were measured using the automated immunoanalyzer and the reagent kit for measuring cTnI, as described in Example 1 or 2, except that the ALP-labeled antibody was used as the second antibody.
(§2) Levamisole (SIGMA) was used to examine an inhibitory effect on an endogenous ALP. Levamisole was added to the solution of magnetic particles, the substrate solution, or both thereof at the final concentration of 0.2 mM. When levamisole was added to the solution of magnetic particles, the inhibitor acted in the measuring step (1) of the automated immunoanalyzer described in Example 1. When levamisole was added to the substrate solution, the inhibitor acted in the measuring step (3).

[1] = biological target: endogenous ALP in whole blood (Homo sapiens, UniProt P05186); conditions: for Positive control (S) measured value (count of luminescence): cTnI 10 ng/mL added
Chain of endogenous ALP in whole blood (P05186 18-501 limits assumed): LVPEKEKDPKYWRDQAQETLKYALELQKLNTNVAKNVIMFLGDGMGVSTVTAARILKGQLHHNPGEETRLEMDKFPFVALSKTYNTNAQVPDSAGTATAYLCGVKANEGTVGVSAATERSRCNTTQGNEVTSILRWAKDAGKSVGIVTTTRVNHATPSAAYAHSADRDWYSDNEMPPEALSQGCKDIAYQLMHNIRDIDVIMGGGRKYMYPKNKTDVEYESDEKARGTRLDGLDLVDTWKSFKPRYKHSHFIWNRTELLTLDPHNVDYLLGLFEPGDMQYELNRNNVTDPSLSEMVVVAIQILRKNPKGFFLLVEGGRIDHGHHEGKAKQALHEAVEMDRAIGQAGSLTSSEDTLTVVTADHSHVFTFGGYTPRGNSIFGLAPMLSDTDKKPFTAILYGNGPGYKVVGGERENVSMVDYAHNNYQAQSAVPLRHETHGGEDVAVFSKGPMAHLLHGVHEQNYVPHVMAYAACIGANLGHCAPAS
Description: Each sample was measured using a reagent kit for measuring cardiac troponin I (cTnI). The kit contained a solution of the first antibody specific to cTnI (a solution of magnetic particles), a solution of the labeled second antibody, a B/F washing liquid, a substrate solution, and the like, and was packaged in a cartridge applicable to an automated immunoanalyzer described below. In this example, a buffer not containing a labeled antibody was used, instead of the solution of the second antibody labeled with an alkaline phosphatase (hereinafter referred to as “ALP”). The measurement was carried out using an automated immunoanalyzer for an immunoassay using magnetic particles, as disclosed in Japanese Patent No. 3115501. […] The measuring step in the analyzer will be described below.
A chemiluminescent substrate CDP-Star (Tropics) was used as a substrate. A count of luminescence detected by a photomultiplier tube (PMT) was regarded as a result of the measurement.
Each cartridge for an automatic measurement was filled with each sample, a liquid for diluting a sample, the solution of magnetic particles (coated with the first antibody), the washing liquid for B/F separation, the solution of the second antibody, the substrate solution, and the like, and set to the automated analyzer. The following steps were carried out in accordance with a normal procedure: • (1) The sample solution, the solution of magnetic particles, and the solution of the second antibody, previously adjusted to predetermined dilutions with the diluting liquid, were mixed to generate an immunocomplex by an antigen-antibody reaction. • (2) A B/F separation was carried out to remove unreacted substances as follows. The resulting reaction liquid was aspirated into the tip arranged as a line for aspirating a solution, and the magnetic particles were trapped by contact with a magnet on the outer wall of the tip. The solution was delivered from the tip while trapping the magnetic particles on the inner wall of the tip. After the separation, the washing liquid for the B/F separation filled in another reaction vessel was aspirated and delivered to wash the magnetic particles in the tip. • (3) The magnet was separated from the outer wall of the tip. The substrate solution was aspirated and delivered to disperse the magnetic particles trapped on the inner wall of the tip and carry out an enzyme reaction. • (4) An amount of luminescence was measured by PMT.
as §1, §2

[2] = levamisole 0.2 mM in magnetic particles solution and substrate solution
[3] = levamisole 0.2 mM in substrate solution only
[4] = plasma (a), levamisole 0.2 mM in magnetic particles solution and substrate solution
[5] = plasma (a), levamisole 0.2 mM in substrate solution only
[6] = whole blood (b), levamisole 0.2 mM in magnetic particles solution and substrate solution
[7] = whole blood (b), levamisole 0.2 mM in substrate solution only

Chain of endogenous ALP (P05186 18-501 limits assumed): as above

## c1ccc([C@H]2CN3CCSC3=N2)cc1 [levamisole]
Endogenous ALP; 0.4 mM levamisole in 0.4 mM CDP-Star substrate solution kept at 4° C.
  count with stored substrate solution (inhibitory effect of levamisole): 4086
Endogenous ALP; 0.4 mM levamisole in 0.4 mM CDP-Star substrate solution kept at 37° C.
  count with stored substrate solution (inhibitory effect of levamisole): 2920
ALP used as the label
  effect on the ALP used as the label: did not adversely affect
[1]; addition of levamisole 0.2 mM
  increased background caused by an endogenous ALP in whole blood samples or hemolized samples: suppressed
[1]; [2]
  Negative control b/a (whole blood to plasma): 2.33
  Positive control b/a (whole blood to plasma): 1.22
  b/[levamisole (—) whole blood negative control]: 0.18
  b/[levamisole (—) whole blood positive control]: 0.79
[1]; [3]
  Negative control b/a (whole blood to plasma): 2.41
  Positive control b/a (whole blood to plasma): 1.33
  b/[levamisole (—) whole blood negative control]: 0.17
  b/[levamisole (—) whole blood positive control]: 0.94
[1]; [4]
  Positive control (S) measured value (count of luminescence): 78622
  Negative control (N) measured value (count of luminescence): 808
  S/N (positive control to negative control): 97.3
[1]; [5]
  Positive control (S) measured value (count of luminescence): 84776
  S/N (positive control to negative control): 119.7
[1]; plasma (a), levamisole 0.2 mM in substrate (CDP-star) solution only
  Negative control (N) measured value (count of luminescence): 708
[1]; [6]
  Positive control (S) measured value (count of luminescence): 95856
  Negative control (N) measured value (count of luminescence): 1883
  S/N (positive control to negative control): 50.9
[1]; [7]
  Positive control (S) measured value (count of luminescence): 113017
  S/N (positive control to negative control): 66.3
[1]; whole blood (b), levamisole 0.2 mM in substrate (CDP-star) solution only
  Negative control (N) measured value (count of luminescence): 1705
